In US20150025077A1 (COYOTE PHARMACEUTICALS, INC., priority 2012, published 2015):
“And” between values parts separate entries of the source, which are not always exact repeats. Identical values can stand only once.

Assays:
Sprague Dawley rats = assay: Kainic acid stereotactic hippocampus injection model, fraction of cells damaged; assay type: in vivo, rat; details: for Difference of mean fraction damaged to pooled PBS / Mean fraction of cells damaged in the hippocampus: 12 mg/kg oral; for Mean fraction of cells damaged in the hippocampus: pooled PBS 0.187
Method: CNS-102 was administered orally to Sprague Dawley rats at 12 mg/kg. After dosing, KA was stereotactically injected into the hippocampus at 24, 48, 72, 96 and 168 hours to induce neuron damage. After 24 h, hippocampus tissue was collected, stained, and imaged. The scans were analyzed by Image J to calculate the fraction of cells having KA-induced damage. Average fraction damaged in the hippocampus from ten animals for each treatment (PBS vs. 12 mg/kg CNS-102) by time (24, 48, 72, 96 and 168 hours) combination was estimated with PROC MIXED in SAS. Comparisons of the CNS-102 treatment groups to the pooled PBS treatment at the different times can be made, giving the results tabulated below.
The fraction of cells damaged in the kainic acid model was determined on 130 rats, each receiving one dose of CNS-102 at either 0, 1, 3, 6, 12 or 24 mg/kg. PBS was used for dosing at 0 mg/kg. The linear model of the log10 percent damage versus concentration is graphically shown FIG. 5.
After dosing, KA was stereotactically injected into the hippocampus at 72 hours to induce neuron damage. After 24 h, hippocampus tissue was collected, stained, and imaged. The scans were analyzed by Image J to calculate the fraction of cells having KA-induced damage.
The indicated compounds or vehicle control were orally dosed to Sprague-Dawley rats, and Kainic acid was injected. After dosing, KA was stereotactically injected into the hippocampus at 72 hours to induce neuron damage. After 24 h, hippocampus tissue was collected, stained, and imaged. The scans were analyzed by Image J to calculate the fraction of cells having KA-induced damage. Neurons damaged by Kainic acid (mean of hippocampus CA3 neurons damaged) were quantified.

SOD1 mice = assay: Survival in the SOD1 mouse model of ALS; assay type: in vivo
Rap1 = assay: Prenylation of Rap1 in Neuro2A cells, western blotting; assay type: cell-based, mouse; details: 100 nM
Procedure, shortened: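 Mouse Neuro2A cells in DMEM/10% FBS were treated with compound for 24 h, then GGTI-298 was added for a further 24 h. Un-prenylated and total Rap1 were quantified by western blot, normalized to GAPDH; the un-prenylated/total ratio was expressed as percent of GGTI-only control, mean of two biological repeats.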

Sod1 mutant mice = assay type: in vivo
From the text: Values represent means±SEMs.
Subjects were weighed and tested for Grip Strength, and assigned Clinical and Neurological scores three times a week beginning at P90 and five times a week beginning at P100. The table below summarizes the experimental design of the study.
The grip strength test assesses motor function and control of the fore- and hindpaws. Mice were allowed to grab the bars on the Chatillon DFIS-10 digital force gauge (Largo, Fla.), while being gently pulled parallel away from the bars by the tail. The maximum force measured prior to release of the subject's paw from the bar was recorded.
Animals were scored using the scoring system tabulated below.

HSP70 [1] = assay: HSP70 expression in neuro2A cells, western blot; assay type: cell-based, mouse; details: for HSP70 western signal (absence of compounds = 1.00): 48 hours, GGTI-298
Method: Differentiation was induced and cells incubated with geranylgeranyl transferase I inhibitor, GGTI-298. Cells were harvested and lysates were prepared and analyzed by western blot for HSP70 and HSP90. Western signals in the absence of the compounds were normalized as 1.00.

[2] = mouse, in vivo, po, 12 mg/kg
From the text: Blood and serum samples from days P70 and P100 were collected on three animals from each of the six treatment groups. Hematology measures were white blood cell count, red blood cell count, hemoglobin, hematocrit, mean corpuscular volume, mean corpuscular hemoglobin, mean corpuscular hemoglobin concentration, and platelets. Chemistry values were alanine aminotransferase, aspartate aminotransferase, albumin, total protein, gamma globulin, blood urea nitrogen, cholesterol, and glucose. No analyses were conducted on any samples collected after P100.

HSP70 [3] = assay: HSP70 gene expression in rat brain tissue, qRT-PCR; assay type: in vivo; details: 12 mg/kg oral
Method: […] Expression of selected HSPs was detected using qRT-PCR with expression of the GAPDH gene used as the control. To represent the effect of CNS-102 on HSP expression, mean fold change is calculated as CNS-102 treated/PBS treated for each HSP at each time point.

CC(=O)CC/C=C(\C)CC/C=C(\C)CC/C=C(\C)CCC=C(C)C [CNS-102]
Difference of mean fraction damaged to pooled PBS (Sprague Dawley rats; KA at 24 hours): 0.005 | Difference of mean fraction damaged to pooled PBS (Sprague Dawley rats; KA at 48 hours): −0.064 | Difference of mean fraction damaged to pooled PBS (Sprague Dawley rats; KA at 72 hours): −0.092 | Difference of mean fraction damaged to pooled PBS (Sprague Dawley rats; KA at 96 hours): −0.056 | Difference of mean fraction damaged to pooled PBS (Sprague Dawley rats; KA at 168 hours): −0.026 | Mean fraction of cells damaged in the hippocampus (Sprague Dawley rats; KA injected at 24 hours): 0.193 | Mean fraction of cells damaged in the hippocampus (Sprague Dawley rats; KA injected at 48 hours): 0.123 | Mean fraction of cells damaged in the hippocampus (Sprague Dawley rats; KA injected at 72 hours): 0.096 | Mean fraction of cells damaged in the hippocampus (Sprague Dawley rats; KA injected at 96 hours): 0.131 | Mean fraction of cells damaged in the hippocampus (Sprague Dawley rats; KA injected at 168 hours): 0.162 | Mean of Hippocampus CA3 Neurons Damaged (Sprague Dawley rats; 24 mg/Kg rat oral, KA at 72 hours): 19.8182 Arbitrary units | minimal effective dose (Sprague Dawley rats; one dose of 0, 1, 3, 6, 12 or 24 mg/kg, kainic acid model): 12 mg/kg | timepoint of maximal protection effect (Sprague Dawley rats; single dose of 12 mg/kg): 72 h | Median Survival (SOD1 mice; CNS-102 12 mg/kg or riluzole 8 mg/kg daily oral from P38, vehicle 125.0): 133.0 days | % Increase in median time to death compared to vehicle group (SOD1 mice; parametric regression (gamma distribution)): 9% and 9.5% | prenylation of Rap1 compared to control (Rap1; student's t-test, P=0.08): slightly increase the prenylation of Rap1 | unprenylated/total RAP1 (%) (Rap1; with GGTI-298, percentage of control (GGTI only)): 59% | clinical and neuroscore testing (Sod1 mutant mice; Sod1 mutant mice, CNS-102 12 mg/kg or Riluzole 8 mg/kg daily oral, vs vehicle): tended to outperform group D | neuroscore testing (Sod1 mutant mice; Sod1 mutant mice, several timepoints around and after P100, vs vehicle): significantly outperforms group D | blood and neurology examinations (Sod1 mutant mice; more than two months of once-daily oral 12 mg/kg): no abnormalities in blood and neurology examinations | body weight (Sod1 mutant mice; wild type mice, group F (CNS-102) vs group E (vehicle)): no noticeable differences | toxicity or behavioral abnormalities (Sod1 mutant mice; wildtype animals dosed with vehicle versus CNS-102 12 mg/kg daily): does not lead to obvious toxicity or behavioral abnormalities | HSP70 western signal (absence of compounds = 1.00) (HSP70 [1]; 100 nM): 1.38 | HSP70 western signal (absence of compounds = 1.00) (HSP70 [1]; 1 μM): 2.05 | HSP70 western signal (absence of compounds = 1.00) (HSP70 [1]; 10 μM): 2.14 | induction of HSP70 expression (HSP70 [1]; various concentrations): induce expression of HSP70 | ABSOLUTE BASOPHIL [2]: 0 per mm^3 | ABSOLUTE EOSINOPHIL [2]: 61.6 per mm^3 | ABSOLUTE LYMPHOCYTE [2]: 3922.4 per mm^3 | ABSOLUTE MONOCYTE [2]: 49.8 per mm^3 | ABSOLUTE NEUTROPHIL SEG [2]: 659.6 per mm^3 | ALKALINE PHOSPHATASE [2]: 70.7 U/L | BASOPHIL [2]: 0.0% | BICARBONATE [2]: 5.0 mg/dL | BUN [2]: 28.8 mg/dL | CALCIUM [2]: 7.7 mg/dL | CHOLESTEROL [2]: 72.4 mg/dL | CREATININE [2]: <1 mg/dL | DIRECT BILIRUBIN [2]: 0.0 mg/dL | EOSINOPHIL [2]: 1.5% | GLUCOSE [2]: 207.6 mg/dL | HCT [2]: 46.0% | HGB [2]: 13.6 gram/dL | INDIRECT BILIRUBIN [2]: 0.0 mg/dL | LYMPHOCYTE [2]: 84.0% | MCH [2]: 15.5 pg | MCHC [2]: 29.5% | MCV [2]: 52.6 U^3 | MONOCYTE [2]: 0.8% | NEUTROPHIL SEG [2]: 13.8% | NRBC [2]: 0.0 per 100 WBC | PHOSPHORUS [2]: 5.7 mg/dL | PLATELET COUNT [2]: 1128.6 Thousands | RBC [2]: 8.8 Millions | SGOT (AST) [2]: 46.3 U/L | SGPT (ALT) [2]: 37.8 U/L | TOTAL BILIRUBIN [2]: 0.0 mg/dL | WBC [2]: 4.7 thousands | HSP70 mean fold change (CNS-102 treated/PBS treated), mean ± SD (HSP70 [3]; 24 h): 1.18 ± 0.01 | HSP70 mean fold change (CNS-102 treated/PBS treated), mean ± SD (HSP70 [3]; 48 h): 1.48 ± 0.02 | HSP70 mean fold change (CNS-102 treated/PBS treated), mean ± SD (HSP70 [3]; 72 h): 1.81 ± 0.01 | HSP70 mean fold change (CNS-102 treated/PBS treated), mean ± SD (HSP70 [3]; 96 h): 1.58 ± 0.03
